Data: patent US20090191636A1, “Method of Producing Transgenic Graminaceous Cells and Plants” (priority 2006, published 2009)

Experiments:
[1] = test system: wheat embryos derived from mature dried grain of the cultivar Bobwhite; assay: Effect of D-amino acids on regeneration of wheat from embryos of mature dried grain (Bobwhite); type: cell-based, Triticum aestivum; conditions: for proportion (%) of explants regenerating after 3 weeks, Average / proportion (%) of explants regenerating after 3 weeks, Experiment number 1 / proportion (%) of explants regenerating after 3 weeks, Experiment number 2 / proportion (%) of explants regenerating after 3 weeks, Experiment number 3: n = 20
Experimental: (§1) A range of concentrations of the D-amino acids D-serine and D-alanine were tested for effects on wheat regeneration and germination from embryos derived from mature dried grain of the cultivar Bobwhite.

[2] = test system: wheat embryos derived from mature dried grain of the cultivar Ventura; assay: Effect of D-amino acids on regeneration of wheat from embryos of mature dried grain (Ventura); type: cell-based; conditions: n = 20
[3] = test system: wheat mature dried grain of the cultivar Bobwhite; assay: Effect of D-amino acids on germination of wheat mature dried grain (Bobwhite); type: in vivo, Triticum aestivum; conditions: n = 15
Experimental: as §1

[4] = test system: wheat mature dried grain of the cultivar Ventura; assay: Effect of D-amino acids on germination of wheat mature dried grain (Ventura); type: in vivo; conditions: n = 15
Experimental: [Worded in the source for another variant; this variant is reported under the same test.] as §1

Structure (SMILES): C[C@@H](N)C(=O)O [D-alanine]
- proportion (%) of explants regenerating after 3 weeks, Average ([1]; 0.5 mM): 20%
- proportion (%) of explants regenerating after 3 weeks, Experiment number 1 ([1]; 0.5 mM): 30%
- proportion (%) of explants regenerating after 3 weeks, Experiment number 2 ([1]; 0.5 mM): 30%
- proportion (%) of explants regenerating after 3 weeks, Experiment number 3 ([1]; 0.5 mM): 0%
- proportion (%) of explants regenerating after 3 weeks, Average ([1]; 1 mM): 20%
- proportion (%) of explants regenerating after 3 weeks, Experiment number 1 ([1]; 1 mM): 35%
- proportion (%) of explants regenerating after 3 weeks, Experiment number 2 ([1]; 1 mM): 21%
- proportion (%) of explants regenerating after 3 weeks, Experiment number 3 ([1]; 1 mM): 5%
- proportion (%) of explants regenerating after 3 weeks, Average ([1]; 3 mM): 15%
- proportion (%) of explants regenerating after 3 weeks, Experiment number 1 ([1]; 3 mM): 20%
- proportion (%) of explants regenerating after 3 weeks, Experiment number 2 ([1]; 3 mM): 25%
- proportion (%) of explants regenerating after 3 weeks, Experiment number 3 ([1]; 3 mM): 0%
- proportion (%) of explants regenerating after 3 weeks, Average ([1]; 5 mM): 3%
- proportion (%) of explants regenerating after 3 weeks, Experiment number 1 ([1]; 5 mM): 5%
- proportion (%) of explants regenerating after 3 weeks, Experiment number 2 ([1]; 5 mM): 5%
- proportion (%) of explants regenerating after 3 weeks, Experiment number 3 ([1]; 5 mM): 0%
- proportion (%) of explants regenerating after 3 weeks, Average ([1]; 10 mM): 0%
- proportion (%) of explants regenerating after 3 weeks, Experiment number 1 ([1]; 10 mM): 0%
- proportion (%) of explants regenerating after 3 weeks, Experiment number 2 ([1]; 10 mM): 0%
- proportion (%) of explants regenerating after 3 weeks, Experiment number 3 ([1]; 10 mM): 0%
- levels that reduced the regeneration and germination of wheat plants ([1]; regeneration and germination (Tables 4 and 5)): > 5 mM
- proportion (%) of explants regenerating after 3 weeks, Average ([2]; 0.5 mM): 8%
- proportion (%) of explants regenerating after 3 weeks, Experiment number 1 ([2]; 0.5 mM): 10%
- proportion (%) of explants regenerating after 3 weeks, Experiment number 2 ([2]; 0.5 mM): 10%
- proportion (%) of explants regenerating after 3 weeks, Experiment number 3 ([2]; 0.5 mM): 5%
- proportion (%) of explants regenerating after 3 weeks, Average ([2]; 1 mM): 5%
- proportion (%) of explants regenerating after 3 weeks, Experiment number 1 ([2]; 1 mM): 0%
- proportion (%) of explants regenerating after 3 weeks, Experiment number 2 ([2]; 1 mM): 10%
- proportion (%) of explants regenerating after 3 weeks, Experiment number 3 ([2]; 1 mM): 5%
- proportion (%) of explants regenerating after 3 weeks, Average ([2]; 3 mM): 7%
- proportion (%) of explants regenerating after 3 weeks, Experiment number 1 ([2]; 3 mM): 10%
- proportion (%) of explants regenerating after 3 weeks, Experiment number 2 ([2]; 3 mM): 10%
- proportion (%) of explants regenerating after 3 weeks, Experiment number 3 ([2]; 3 mM): 0%
- proportion (%) of explants regenerating after 3 weeks, Average ([2]; 5 mM): 3%
- proportion (%) of explants regenerating after 3 weeks, Experiment number 1 ([2]; 5 mM): 5%
- proportion (%) of explants regenerating after 3 weeks, Experiment number 2 ([2]; 5 mM): 5%
- proportion (%) of explants regenerating after 3 weeks, Experiment number 3 ([2]; 5 mM): 0%
- proportion (%) of explants regenerating after 3 weeks, Average ([2]; 10 mM): 0%
- proportion (%) of explants regenerating after 3 weeks, Experiment number 1 ([2]; 10 mM): 0%
- proportion (%) of explants regenerating after 3 weeks, Experiment number 2 ([2]; 10 mM): 0%
- proportion (%) of explants regenerating after 3 weeks, Experiment number 3 ([2]; 10 mM): 0%
- proportion (%) of explants regenerating after 3 weeks, Average ([2]; 20 mM): 0%
- proportion (%) of explants regenerating after 3 weeks, Experiment number 1 ([2]; 20 mM): 0%
- proportion (%) of explants regenerating after 3 weeks, Experiment number 2 ([2]; 20 mM): 0%
- proportion (%) of explants regenerating after 3 weeks, Experiment number 3 ([2]; 20 mM): 0%
- proportion (%) of explants germinated after 1 week, Average ([3]; 0.5 mM): 77%
- proportion (%) of explants germinated after 1 week, Experiment Number 1 ([3]; 0.5 mM): 55%
- proportion (%) of explants germinated after 1 week, Experiment Number 2 ([3]; 0.5 mM): 75%
- proportion (%) of explants germinated after 1 week, Experiment Number 3 ([3]; 0.5 mM): 100%
- proportion (%) of explants germinated after 1 week, Average ([3]; 1 mM): 77%
- proportion (%) of explants germinated after 1 week, Experiment Number 1 ([3]; 1 mM): 70%
- proportion (%) of explants germinated after 1 week, Experiment Number 2 ([3]; 1 mM): 80%
- proportion (%) of explants germinated after 1 week, Experiment Number 3 ([3]; 1 mM): 80%
- proportion (%) of explants germinated after 1 week, Average ([3]; 3 mM): 73%
- proportion (%) of explants germinated after 1 week, Experiment Number 1 ([3]; 3 mM): 70%
- proportion (%) of explants germinated after 1 week, Experiment Number 2 ([3]; 3 mM): 70%
- proportion (%) of explants germinated after 1 week, Experiment Number 3 ([3]; 3 mM): 80%
- proportion (%) of explants germinated after 1 week, Average ([3]; 5 mM): 62%
- proportion (%) of explants germinated after 1 week, Experiment Number 1 ([3]; 5 mM): 50%
- proportion (%) of explants germinated after 1 week, Experiment Number 2 ([3]; 5 mM): 85%
- proportion (%) of explants germinated after 1 week, Experiment Number 3 ([3]; 5 mM): 50%
- proportion (%) of explants germinated after 1 week, Average ([3]; 10 mM): 28%
- proportion (%) of explants germinated after 1 week, Experiment Number 1 ([3]; 10 mM): 10%
- proportion (%) of explants germinated after 1 week, Experiment Number 2 ([3]; 10 mM): 35%
- proportion (%) of explants germinated after 1 week, Experiment Number 3 ([3]; 10 mM): 40%
- germination: proportion (%) of explants regenerating after 1 week, Average ([4]; 0.5 mM): 73%
- germination: proportion (%) of explants regenerating after 1 week, Experiment number 1 ([4]; 0.5 mM): 65%
- germination: proportion (%) of explants regenerating after 1 week, Experiment number 2 ([4]; 0.5 mM): 65%
- germination: proportion (%) of explants regenerating after 1 week, Experiment number 3 ([4]; 0.5 mM): 90%
- germination: proportion (%) of explants regenerating after 1 week, Average ([4]; 1 mM): 75%
- germination: proportion (%) of explants regenerating after 1 week, Experiment number 1 ([4]; 1 mM): 75%
- germination: proportion (%) of explants regenerating after 1 week, Experiment number 2 ([4]; 1 mM): 75%
- germination: proportion (%) of explants regenerating after 1 week, Experiment number 3 ([4]; 1 mM): 75%
- germination: proportion (%) of explants regenerating after 1 week, Average ([4]; 3 mM): 75%
- germination: proportion (%) of explants regenerating after 1 week, Experiment number 1 ([4]; 3 mM): 80%
- germination: proportion (%) of explants regenerating after 1 week, Experiment number 2 ([4]; 3 mM): 65%
- germination: proportion (%) of explants regenerating after 1 week, Experiment number 3 ([4]; 3 mM): 80%
- germination: proportion (%) of explants regenerating after 1 week, Average ([4]; 5 mM): 67%
- germination: proportion (%) of explants regenerating after 1 week, Experiment number 1 ([4]; 5 mM): 70%
- germination: proportion (%) of explants regenerating after 1 week, Experiment number 2 ([4]; 5 mM): 55%
- germination: proportion (%) of explants regenerating after 1 week, Experiment number 3 ([4]; 5 mM): 75%
- germination: proportion (%) of explants regenerating after 1 week, Average ([4]; 10 mM): 47%
- germination: proportion (%) of explants regenerating after 1 week, Experiment number 1 ([4]; 10 mM): 65%
- germination: proportion (%) of explants regenerating after 1 week, Experiment number 2 ([4]; 10 mM): 30%
- germination: proportion (%) of explants regenerating after 1 week, Experiment number 3 ([4]; 10 mM): 45%
- germination: proportion (%) of explants regenerating after 1 week, Average ([4]; 20 mM): 5%
- germination: proportion (%) of explants regenerating after 1 week, Experiment number 1 ([4]; 20 mM): 5%
- germination: proportion (%) of explants regenerating after 1 week, Experiment number 2 ([4]; 20 mM): 25%
- germination: proportion (%) of explants regenerating after 1 week, Experiment number 3 ([4]; 20 mM): 40%
